# ChEMBL document CHEMBL5357036, “Latest developments in coumarin-based anticancer agents: mechanism of action and structure-activity relationship studies” (RSC Med Chem, 2024)
# What was measured:
# MCF7 [1] = assay: cells; conditions: Homo sapiens, MCF7, 24 h
# Description: Cytotoxicity against human MCF7 cells assessed as reduction in cell viability incubated for 24 hrs by MTT assay
# MDA-MB-231 [2] = assay: Antiproliferative activity against human MDA-MB-231 cells assessed as reduction in cell viability measured after 72 hrs under hypoxia condition by MTT assay; format: functional, cell-based; conditions: MDA-MB-231, 72 h
# MDA-MB-231 [3] = assay: Antiproliferative activity against human MDA-MB-231 cells assessed as reduction in cell viability measured after 72 hrs under normoxia condition by MTT assay; conditions: MDA-MB-231, 72 h
# HeLa = assay: Anticancer activity against human HeLa cells assessed as cell growth inhibition; format: functional
# MCF7 [4] = assay: Cytotoxicity against human MCF7 cells assessed as cell growth inhibition incubated for 48 hrs by SRB assay; format: functional, cell-based; conditions: MCF7, 48 h
# HOS = assay: Cytotoxicity against human HOS cells assessed as reduction in cell growth incubated for 5 days by MTT assay; format: functional, cell-based; conditions: 120 h
# MCF7 [5] = assay: Cytotoxicity against human MCF7 cells assessed as reduction in cell growth incubated for 5 days by MTT assay; format: functional, cell-based; conditions: MCF7, 120 h
# MCF7 [6] = assay: Cytotoxicity against human MCF7 cells assessed as inhibition of cell growth measured after 24 hrs by MTT assay; format: functional, cell-based; conditions: MCF7, 24 h
# A549 = assay: Cytotoxicity against human A549 cells assessed as reduction in cell growth incubated for 48 hrs by MTT assay; format: functional, cell-based; conditions: A549, 48 h
# MCF7 [7] = assay: Cytotoxicity against human MCF7 cells assessed as reduction in cell growth incubated for 48 hrs by MTT assay; format: functional, cell-based; conditions: MCF7, 48 h
# SW480 = assay: Cytotoxicity against human SW480 cells assessed as reduction in cell viability incubated for 48 hrs by MTT; format: functional, cell-based; conditions: SW480, 48 h
# MCF7 [8] = assay: Cytotoxicity against human MCF7 cells assessed as cell growth inhibition measured after 48 hrs by MTT assay; format: functional, cell-based; conditions: MCF7, 48 h
# HepG2 = assay: Cytotoxicity against human HepG2 cells assessed as cell growth inhibition measured after 48 hrs by MTT assay; format: functional, cell-based; conditions: HepG2, 48 h
# K562 = assay: Cytotoxicity against human K562 cells assessed as reduction in cell growth by MTT assay; format: functional, cell-based
# MCF7 [9] = assay: Antiproliferative activity against human MCF7 cells assessed as reduction in cell viability measured after 24 hrs by MTT assay; format: functional, cell-based; conditions: MCF7, 24 h
# MCF7 [10] = assay: Growth inhibition of human MCF7 cells incubated for 48 hrs by SRB assay; format: functional
# T47D = assay: Anticancer activity against human T47D cells assessed as cell growth inhibition; format: functional, cell-based
# [11] = target: ALK tyrosine kinase receptor (Homo sapiens, UniProt Q9UM73, L1196M); assay: Inhibition of ALK L1196M mutant (unknown origin)
# Sequence of ALK tyrosine kinase receptor (Q9UM73 19-1620 L1196M limits assumed): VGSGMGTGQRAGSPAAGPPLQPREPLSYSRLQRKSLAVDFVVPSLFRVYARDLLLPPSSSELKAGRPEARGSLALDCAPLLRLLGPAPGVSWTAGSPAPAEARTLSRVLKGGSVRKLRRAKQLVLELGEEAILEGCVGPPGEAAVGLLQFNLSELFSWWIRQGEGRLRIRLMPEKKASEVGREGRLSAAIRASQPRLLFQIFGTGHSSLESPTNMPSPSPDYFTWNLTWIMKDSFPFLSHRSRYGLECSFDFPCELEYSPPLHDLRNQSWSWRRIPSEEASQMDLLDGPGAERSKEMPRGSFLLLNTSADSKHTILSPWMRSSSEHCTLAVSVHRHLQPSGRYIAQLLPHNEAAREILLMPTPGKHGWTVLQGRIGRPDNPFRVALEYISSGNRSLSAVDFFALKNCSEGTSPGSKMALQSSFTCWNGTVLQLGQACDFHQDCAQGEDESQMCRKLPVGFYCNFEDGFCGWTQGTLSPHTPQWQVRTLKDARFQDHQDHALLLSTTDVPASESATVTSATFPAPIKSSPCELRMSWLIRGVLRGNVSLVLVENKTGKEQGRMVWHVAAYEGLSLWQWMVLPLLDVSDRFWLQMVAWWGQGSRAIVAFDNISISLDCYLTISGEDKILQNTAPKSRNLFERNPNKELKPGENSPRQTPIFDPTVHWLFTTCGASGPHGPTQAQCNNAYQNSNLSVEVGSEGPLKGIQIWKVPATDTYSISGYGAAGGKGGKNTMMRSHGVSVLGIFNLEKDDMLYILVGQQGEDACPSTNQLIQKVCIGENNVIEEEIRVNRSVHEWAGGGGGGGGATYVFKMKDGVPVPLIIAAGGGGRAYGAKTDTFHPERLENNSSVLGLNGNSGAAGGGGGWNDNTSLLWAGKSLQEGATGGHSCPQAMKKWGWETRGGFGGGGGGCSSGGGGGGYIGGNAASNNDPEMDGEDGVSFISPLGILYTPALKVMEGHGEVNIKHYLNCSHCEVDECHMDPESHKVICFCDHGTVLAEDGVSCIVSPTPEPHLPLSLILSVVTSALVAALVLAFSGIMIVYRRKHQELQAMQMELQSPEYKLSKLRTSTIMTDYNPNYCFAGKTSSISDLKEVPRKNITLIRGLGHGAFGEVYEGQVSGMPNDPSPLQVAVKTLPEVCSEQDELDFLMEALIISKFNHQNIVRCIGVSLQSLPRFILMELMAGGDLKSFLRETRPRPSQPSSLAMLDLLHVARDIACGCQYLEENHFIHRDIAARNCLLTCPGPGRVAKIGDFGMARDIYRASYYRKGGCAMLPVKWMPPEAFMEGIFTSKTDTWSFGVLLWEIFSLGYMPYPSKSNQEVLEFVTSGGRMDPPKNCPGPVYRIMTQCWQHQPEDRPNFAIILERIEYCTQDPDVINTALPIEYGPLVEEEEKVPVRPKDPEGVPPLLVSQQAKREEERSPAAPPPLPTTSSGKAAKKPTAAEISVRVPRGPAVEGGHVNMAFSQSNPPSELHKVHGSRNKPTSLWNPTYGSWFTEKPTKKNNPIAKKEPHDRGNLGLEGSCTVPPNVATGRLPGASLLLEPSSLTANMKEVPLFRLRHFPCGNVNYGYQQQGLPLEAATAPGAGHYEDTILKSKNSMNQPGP
# [12] = Cytotoxicity against green monkey COS-7 cells; format: toxicity, cell-based; conditions: green monkey (Chlorocebus aethiops)
compound,measurement,setting,value
C/C(=N\Nc1nc(C)c(/N=N/c2ccc(Cl)cc2)s1)c1cc2cc(/N=N/c3ccccc3)ccc2oc1=O,IC50,MCF7 [1],10.5 µM
O=c1cc(O)c2ccccc2o1 [4-HYDROXYCOUMARINS],IC50,MDA-MB-231 [2],≥ 100 µM
same,IC50,MDA-MB-231 [3],≥ 100 µM
COc1ccc2oc(=O)cc(-c3nc4ccccc4n3S(=O)(=O)c3ccc(C)cc3)c2c1,GI50,HeLa,35.3 µg/mL
COc1ccc(/C=C2/SC(=O)N(CCCOc3ccc4c(C)cc(=O)oc4c3)C2=O)cc1,IC50,MCF7 [4],15.6 µg/mL
Cn1cc(C(C)(c2cc3ccccc3oc2=O)c2cn(C)c3ccccc23)c2ccccc21,IC50,HOS,12.2 µM
CC(c1cc2ccccc2oc1=O)(c1c[nH]c2ccccc12)c1c[nH]c2ccccc12,IC50,MCF7 [5],19.8 µM
same,IC50,HOS,20.8 µM
COc1ccc(-c2cc(-c3cc4ccccc4oc3=O)nc(NC(C)=O)c2C#N)cc1,IC50,MCF7 [6],1.1 µM
O=C(CNCc1cccnc1)Nc1cc2ccccc2oc1=O,IC50,A549,69.1 µM
same,IC50,MCF7 [7],69.1 µM
COc1ccc(-c2cc(-c3cc4ccccc4oc3=O)nc(N)c2C(N)=O)cc1,IC50,MCF7 [6],1.1 µM
CCCCCCCCOc1ccc2c(C)c(/C=C/c3cc(OC)ccc3OC)c(=O)oc2c1,IC50,SW480,6.92 µM
Cc1cc(-c2cc3cc(Cl)ccc3oc2=O)n(-c2nc(-c3ccc(Cl)cc3)cs2)n1,IC50,MCF7 [8],4.42 µM
same,IC50,HepG2,3.06 µM
Cc1c(Cc2ccc(NC(=O)Nc3ccc(F)c(F)c3)nc2)c(=O)oc2cc(O)c(C(C)(C)C)cc12,IC50,K562,1.66 µM
Cc1cc(OCc2cn(C3C(=O)N(c4cccc(Cl)c4)C3/C=C\c3ccccc3)nn2)cc2oc(=O)cc(C)c12 (configuration not stated),IC50,MCF7 [9],58.6 µM
Cc1ccc(S(=O)(=O)n2c(-c3cc(=O)oc4ccc(C)cc34)nc3ccccc32)cc1,GI50,HeLa,36.2 µg/mL
COc1cc(/C=C/c2ccc3ccc(=O)oc3c2)cc(OC)c1O,IC50,SW480,1.01 µM
CNC(=O)c1cc(Oc2ccc(NC(=O)Nc3ccc(Cl)c(C(F)(F)F)c3)cc2)ccn1 [SORAFENIB],IC50,MCF7 [1],5.1 µM
COc1cc(/C=C/C(=O)c2cc3ccccc3oc2=O)ccc1OCCN1CCCCC1,GI50,MCF7 [10],32.5 µg/mL
same,IC50,T47D,2.32 µM
COc1ccc2cc(-c3nc4ccc(OC)cc4s3)c(=O)oc2c1,IC50,[11],0.45 µM
Cc1c(NC(=O)CNCc2cccnc2)c(=O)oc2ccccc12,IC50,A549,69.1 µM
same,IC50,MCF7 [7],69.1 µM
C/C(=N\Nc1nc(C)c(/N=N/c2ccc(C)cc2)s1)c1cc2cc(/N=N/c3ccccc3)ccc2oc1=O,IC50,MCF7 [1],11.2 µM
O=C(/C=C/c1ccccc1OCCN1CCCCC1)c1cc2ccccc2oc1=O,GI50,MCF7 [10],18.9 µg/mL
same,IC50,T47D,2.32 µM
O=C(/C=C/c1ccc(OCCN2CCCCC2)cc1)c1cc2ccccc2oc1=O,GI50,MCF7 [10],< 10 µg/mL
same,IC50,T47D,2.32 µM
Cc1c(Cc2ccc(NC(=O)Nc3ccc(Cl)c(F)c3)nc2)c(=O)oc2cc(O)c(C(C)(C)C)cc12,IC50,K562,1.66 µM
COc1ccc(-c2cc(-c3cc4ccccc4oc3=O)nc3nc(C)[nH]c(=O)c23)cc1,IC50,MCF7 [6],1.1 µM
Cc1cc(OCc2cn(C3C(=O)N(c4cccc([N+](=O)[O-])c4)C3/C=C\c3ccccc3)nn2)cc2oc(=O)cc(C)c12 (configuration not stated),IC50,MCF7 [9],53.6 µM
COc1cc(/C=C/c2ccc3ccc(=O)oc3c2)ccc1O,IC50,SW480,5.33 µM
COc1ccc(-c2csc(-n3nc(C)cc3-c3cc4cc(Cl)ccc4oc3=O)n2)cc1,IC50,MCF7 [8],4.03 µM
COc1cc(/C=C2/SC(=O)N(CCCOc3ccc4c(C)cc(=O)oc4c3)C2=O)cc(OC)c1O,IC50,MCF7 [4],12.1 µg/mL
CC(c1cc2ccccc2oc1=O)(c1c[nH]c2ccc(I)cc12)c1c[nH]c2ccc(I)cc12,IC50,MCF7 [5],28 µM
same,IC50,HOS,8.75 µM
Cc1cc(-c2cc3ccccc3oc2=O)n(-c2nc(-c3ccc(Cl)cc3)cs2)n1,IC50,HepG2,3.74 µM
O=c1oc2ccccc2cc1-c1csc(N/N=C/c2cc([N+](=O)[O-])ccc2Cl)n1,IC50,[12],1.96 µM
COc1cccc2c1C(=O)c1c(O)c3c(c(O)c1C2=O)C[C@@](O)(C(=O)CO)C[C@@H]3O[C@H]1C[C@H](N)[C@H](O)[C@H](C)O1 [DOXORUBICIN],IC50,MDA-MB-231 [2],0.6 µM
same,IC50,MDA-MB-231 [3],1.07 µM
